Data from US6133292A, “Diaryl-5-alkyl-5-methyl-2-(5H)-furanones as selective cyclooxygenase-2-inhibitors” (Merck Frosst Canada & Co., priority 1998, dated 2000).

Assays:
COX-1 = COX-1 (Homo sapiens, UniProt P23219); test: Assay of COX-1 activity from U937 cell microsomes; format: biochemical; parameters: Assay of COX-1 Activity from U937 cell microsomes; endogenous in cells; host or cells: U937 cells, 100,000 x g microsomal fraction; settings: read-out: U937 Cox-1 (IC50, inhibition of PGE2 production)
Protocol: Assay of COX-1 Activity from U937 cell microsomes
U 937 cells are pelleted by centrifugation at 500 x g for 5 min and washed once with phosphate-buffered saline and repelleted. Cells are resuspended in homogenization buffer consisting of 0.1 M Tris-HCl, pH 7.4, 10 mM EDTA, 2 μg/ml leupeptin, 2 μg/ml soybean trypsin inhibitor, 2 μg/ml aprotinin and 1 mM phenyl methyl sulfonyl fluoride. The cell suspension is sonicated 4 times for 10 sec and is centrifuged at 10,000 x g for 10 min at 4° C. The supernatant is centrifuged at 100,000 x g for 1 hr at 4° C. The 100,000 x g microsomal pellet is resuspended in 0.1 M Tris-HCl, pH 7.4, 10 mM EDTA to approximately 7 mg protein/mil and stored at -80° C.
Microsomal preparations are thawed immediately prior to use, subjected to a brief sonication, and then diluted to a protein concentration of 125 μg/ml in 0.1 M Tris-HCl buffer, pH 7.4 containing 10 mM EDTA, 0.5 mM phenol, 1 mM reduced glutathione and 1 μM hematin. Assays are performed in duplicate in a final volume of 250 μl. Initially, 5 μl of DMSO vehicle or drug in DMSO are added to 20 μl of 0.1 M Tris-HCl buffer, pH 7.4 containing 10 mM EDTA in wells of a 96-deepwell polypropylene titre plate. 200 μl of the microsomal preparation are then added and pre-incubated for 15 min at room temperature before addition of 25 μl of […] arachidonic acid in […] Tris-HCl and 10 mM EDTA, pH 7.4. Samples are incubated for 40 min at room temperature and the reaction is stopped by the addition of 25 μl of 1 N HCl. Samples are neutralized with 25 μl of 1 N NaOH prior to quantitation of PGE2 content by radioimmunoassay (Dupont-NEN or Amersham assay kits). Cyclooxygenase activity is defined as the difference between PGE2 levels in samples incubated in the presence of arachidonic acid and ethanol vehicle.
(§1) Compounds of the present invention are inhibitors of COX-2 and are thereby useful in the treatment of COX-2 mediated diseases as enumerated above. The activities of the compounds against cyclooxygenase may be seen in the representative results shown below. In the assay, inhibition is determined by measuring the amount of prostaglandin E2 (PGE2) synthesized in the presence of arachidonic acid, COX-1 or COX-2 and a putative inhibitor. The IC50 values represent the concentration of putative inhibitor required to lower PGE2 synthesis to 50% of that obtained as compared to the uninhibited control.

COX-2 = molecular target: T1, COX-2 (Homo sapiens, UniProt P35354); test: Human whole blood assay, COX-2 (LPS-induced PGE2 production); format: cell-based; parameters: incubation of human whole blood with LPS, which induces COX-2; from tissue; host or cells: fresh heparinized human whole blood from male and female volunteers, LPS-stimulated; settings: 24 hours at 37° C, read-out: HWB Cox-2 (IC50, inhibition of PGE2 production)
T1 sequence (P35354 18-604): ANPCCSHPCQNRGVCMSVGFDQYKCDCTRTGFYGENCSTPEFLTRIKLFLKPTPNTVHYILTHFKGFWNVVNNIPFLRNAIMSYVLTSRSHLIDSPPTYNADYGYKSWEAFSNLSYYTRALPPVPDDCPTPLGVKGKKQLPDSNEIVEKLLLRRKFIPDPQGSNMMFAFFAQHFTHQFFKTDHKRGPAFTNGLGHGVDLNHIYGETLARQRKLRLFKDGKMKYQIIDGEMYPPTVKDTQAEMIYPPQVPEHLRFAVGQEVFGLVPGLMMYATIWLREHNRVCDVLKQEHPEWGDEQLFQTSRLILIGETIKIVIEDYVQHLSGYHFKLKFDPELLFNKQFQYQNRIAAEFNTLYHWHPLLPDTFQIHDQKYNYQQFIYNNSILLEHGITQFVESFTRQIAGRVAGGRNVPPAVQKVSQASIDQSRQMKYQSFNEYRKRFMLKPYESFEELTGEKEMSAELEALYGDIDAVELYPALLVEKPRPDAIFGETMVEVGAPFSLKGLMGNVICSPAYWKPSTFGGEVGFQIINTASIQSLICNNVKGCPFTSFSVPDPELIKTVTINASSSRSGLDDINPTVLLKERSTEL
Protocol: Human whole blood provides a protein and cell-rich milieu appropriate for the study of biochemical efficacy of anti-inflammatory compounds such as selective COX-2 inhibitors. […] This is consistent with the observation that COX-2 inhibitors have no effect on PGE2 production in normal blood. These inhibitors are active only after incubation of human whole blood with LPS, which induces COX-2. This assay can be used to evaluate the inhibitory effect of selective COX-2 inhibitors on PGE2 production. As well, platelets in whole blood contain a large amount of the COX-1 enzyme. Immediately following blood clotting, platelets are activated through a thrombin-mediated mechanism. This reaction results in the production of thromboxane B2 (TXB2) via activation of COX-1. Thus, the effect of test compounds on TxB2 levels following blood clotting can be examined and used as an index for COX-1 activity. Therefore, the degree of selectivity by the test compound can be determined by measuring the levels of PGE2 after LPS induction (COX-2) and TxB2 following blood clotting (COX-1) in the same assay.
A. COX-2 (LPS-induced PGE9 production)
Fresh blood is collected in heparinized tubes by venipuncture from both male and female volunteers. The subjects have no apparent inflammatory conditions and have not taken any NSAIDs for at least 7 days prior to blood collection. Plasma is immediately obtained from a 2 mL blood aliquot to use as blank (basal levels of PGE2). The remaining blood is incubated with LPS (100 μg/ml final concentration, Sigma Chem, #L-2630 from E. coli; diluted in 0.1% BSA (Phosphate buffered saline) for 5 minutes at room temperature. Five hundred μL aliquots of blood are incubated with either 2 μL of vehicle (DMSO) or 2 μL of a test compound at final concentrations varying from 10 nM to 30 μM for 24 hours at 37° C. At the end of the incubation, the blood is centrifuged at 12,000 x g for 5 minutes to obtain plasma. A 100 μL aliquot of plasma is mixed with 400 μL of methanol for protein precipitation. The supernatant is obtained and is assayed for PGE2 using a radioimmunoassay kit (Amersham, RPA#530) after conversion of PGE2 to its methyl oximate derivative according to the manufacturer's procedure.
as §1

Chain of COX-1 (P23219 24-599): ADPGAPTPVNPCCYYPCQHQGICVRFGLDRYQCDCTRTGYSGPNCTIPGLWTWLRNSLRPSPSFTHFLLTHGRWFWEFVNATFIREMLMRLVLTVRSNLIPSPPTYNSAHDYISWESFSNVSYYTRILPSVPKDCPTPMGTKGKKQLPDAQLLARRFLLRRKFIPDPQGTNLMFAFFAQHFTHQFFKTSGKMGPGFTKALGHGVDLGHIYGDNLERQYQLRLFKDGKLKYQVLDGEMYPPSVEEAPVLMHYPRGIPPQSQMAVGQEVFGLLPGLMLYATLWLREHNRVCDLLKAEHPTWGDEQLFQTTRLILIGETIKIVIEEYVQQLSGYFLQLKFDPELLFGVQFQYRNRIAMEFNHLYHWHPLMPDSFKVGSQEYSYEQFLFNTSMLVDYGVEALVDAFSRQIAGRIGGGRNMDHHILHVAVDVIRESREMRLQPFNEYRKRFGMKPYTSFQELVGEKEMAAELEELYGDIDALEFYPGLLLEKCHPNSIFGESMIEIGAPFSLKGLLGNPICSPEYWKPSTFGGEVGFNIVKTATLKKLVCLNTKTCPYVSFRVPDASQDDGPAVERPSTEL

SMILES	IC50 (COX-1)	IC50 (COX-2)
CC1(C)OC(=O)C(c2ccc(F)cc2)=C1c1ccc(S(C)(=O)=O)cc1 [Compound T3-1, 3-(4-fluorophenyl)-5,5-dimethyl-4-[4-(methylsulfonyl)phenyl]-2,5-dihydro-2-furanone, reference compound]	5.8 µM	< 0.37 µM
CCC1(C)OC(=O)C(c2ccc(F)cc2)=C1c1ccc(S(C)(=O)=O)cc1 (stereo not shown) [c, 5-ethyl-3-(4-fluorophenyl)-5-methyl-4-[4-(methylsulfonyl)phenyl]-2,5-dihydro-2-furanone]	7.4 µM	0.59 µM
CC[C@]1(C)OC(=O)C(c2ccc(F)cc2)=C1c1ccc(S(C)(=O)=O)cc1 [d, (5S)-5-ethyl-3-(4-fluorophenyl)-5-methyl-4-[4-(methylsulfonyl)phenyl]-2,5-dihydro-2-furanone]	3.2 µM	0.31 µM
CC[C@@]1(C)OC(=O)C(c2ccc(F)cc2)=C1c1ccc(S(C)(=O)=O)cc1 [e, (5R)-5-ethyl-3-(4-fluorophenyl)-5-methyl-4-[4-(methylsulfonyl)phenyl]-2,5-dihydro-2-furanone]	6.2 µM	0.13 µM
CC[C@@]1(C)OC(=O)C(c2ccc(F)c(F)c2)=C1c1ccc(S(C)(=O)=O)cc1 [h, (5R)-3-(3,4-difluorophenyl)-5-ethyl-5-methyl-4-[4-(methylsulfonyl)phenyl] -2,5-dihydro-2-furanone]	24.8 µM	1.55 µM
CC[C@]1(C)OC(=O)C(c2ccc(F)c(F)c2)=C1c1ccc(S(C)(=O)=O)cc1 [i, (5S)-3-(3,4-difluorophenyl)-5-ethyl-5-methyl-4-[4-(methylsulfonyl)phenyl] -2,5-dihydro-2-furanone]	13.4 µM	0.53 µM
CCCC1(C)OC(=O)C(c2ccc(F)cc2)=C1c1ccc(S(C)(=O)=O)cc1 (stereo not shown) [n, 3-(4-fluorophenyl)-5-methyl-4-[4-(methylsulfonyl)phenyl]-5-propyl-2,5-dihydro-2-furanone]	> 10 µM	2.51 µM
CCCC1(C)OC(=O)C(c2cccc(F)c2)=C1c1ccc(S(C)(=O)=O)cc1 (stereo not shown) [o, 3-(3-fluorophenyl)-5-methyl-4-[4-(methylsulfonyl)phenyl]-5-propyl-2,5-dihydro-2-furanone]	> 10 µM	3.55 µM
CCCC1(C)OC(=O)C(c2ccc(F)c(F)c2)=C1c1ccc(S(C)(=O)=O)cc1 (stereo not shown) [p, 3-(3,4-difluorophenyl)-5-methyl-4-[4-(methylsulfonyl)phenyl]-5-propyl-2,5-dihydro-2-furanone]	> 10 µM	2.44 µM
CCC1(CC)OC(=O)C(c2ccccc2)=C1c1ccc(S(C)(=O)=O)cc1 [t, 5,5-diethyl-4-[4-(methylsulfonyl)phenyl]-3-phenyl-2,5-dihydro-2-furanone, reference compound]	> 10 µM	12.2 µM
CCC1(CC)OC(=O)C(c2ccc(F)cc2)=C1c1ccc(S(C)(=O)=O)cc1 [u, 5,5-diethyl-3-(4-fluorophenyl)-4-[4-(methylsulfonyl)phenyl]-2,5-dihydro-2-furanone, reference compound]	> 10 µM	13.9 µM
